Results: patent US20090181920A1, “INTRATHECAL TREATMENT OF NEUROPATHIC PAIN WITH A2AR AGONISTS” (PGXHEALTH, LLC, priority 2008, published 2009)

Assays:
CCI-induced allodynia [1] = experiment: Chronic constriction injury (CCI) neuropathic pain model, von Frey testing after a single intrathecal injection; type: in vivo, Sprague Dawley rats; conditions: for Effect on CCI-induced allodynia relative to ATL313 and CGS21680: tested at 1 uM
Method: (§1) Saline is used as the vehicle in the experiments. All A2A agonists are dissolved in 100% DMSO to a 10 mM concentration. These are then diluted 1:10,000 with saline. The total volume of injection for all groups is 5 μL, which consists of a 1 μL air bubble, 1 μL of agonist/vehicle, 1 μL air bubble, and finally a 2 μL flush of saline. The intermediate air bubble is used to separate drug/vehicle and the flush.
Sprague Dawley rats underwent chronic constriction injury (CCI) of the sciatic nerve or sham surgery. After pre-surgery baseline testing (Day 0=D0), rats received chronic constriction injury of the left sciatic nerve at mid-thigh level to produce neuropathic pain (chronic constriction injury model: CCI). This is seen by the fall in pain threshold between days 4 and 11 (D4, D11) after surgery relative to D0. Once CCI-induced allodynia was stable as tested by von Frey filaments, the material to be studied (e.g., vehicle or A2AR agonists CGS21680 or ATL313) was injected intrathecally. After injection, behavioral testing occurred at 4, 24, and 72 h and then weekly for 6 weeks.
The results of the studies are shown in FIG. 1 with the translation of Y-axis units as follows: 5=10 grams, 4.75=5.62 grams, 4.5=3.16 grams, 4.25=[…], 4=1 gram, 3.75=0.56 grams, 3.5=0.32 grams.
Although the CCI surgery is unilateral (left sciatic nerve), the allodynia is present bilaterally. In addition, the reversal of allodynia by A2A agonism also occurs bilaterally. Therefore, ATL313 activates A2A receptors within the spinal cord altering the mechanisms leading to central sensitization.
The animals following unilateral CCI surgery of the left sciatic nerve, as noted above, have allodynia in both hind paws. For simplicity all graphs show left hind paw responses only, as the right hind paw had equivalent responses.

CCI-induced allodynia [2] = experiment: Blockade and reversal of A2A agonist (ATL313) by antagonist ZM241385 in the CCI model, von Frey testing; type: in vivo, male Sprague-Dawley rats
Method: as §1
CCI surgery and indwelling intrathecal catheters were implanted in male Sprague-Dawley rats (325-350 g, n=6/group). 10-14 days after surgery, when the allodynia is stable, an A2A antagonist (ZM241385, 10 uM, Tocris Bioscience) or vehicle was co-administered with ATL313 or vehicle. von Frey testing was done before surgery, before intrathecal injections, and 1, 2, 3, 4, 6, and 24 h after injection.
In a separate group of animals, ATL313 (1 uM) was administered 10-14 days after CCI surgery. One week after ATL313 (1 uM, i.t.) administration, ZM241385 (10 uM) or equivolume vehicle was administered intrathecally. von Frey testing was done 1, 2, 3, 4, 6 & 24 h after injection.

[3] = single intrathecal injection, 1 uM, given 10-14 days after CCI surgery, P<0.05

CCNC(=O)[C@H]1O[C@@H](n2cnc3c(N)nc(NCCc4ccc(CCC(=O)O)cc4)nc32)[C@H](O)[C@@H]1O [CGS21680, 3-[4-[2-[[6-amino-9-[(2R,3R,4S,5S)-5-(ethylcarbamoyl)-3,4-dihydroxy-oxolan-2-yl]purin-2-yl]amino]ethyl]phenyl]propanoic acid, reference compound]
Reversal of CCI-induced allodynia compared with ATL313 (CCI-induced allodynia [1]; intrathecal, at a 10-fold higher dose than that of ATL313, P<0.001): comparable reversal of CCI-induced allodynia, in both duration and intensity

Nc1nc(C#CCC2CCN(C(=O)OC3CCC3)CC2)nc2c1ncn2C1OC(C(=O)NC2CC2)C(O)C1O (centres unmarked) [Compound B, 4-{3-[6-Amino-9-(5-cyclopropylcarbamoyl-3,4-dihydroxy-tetrahydro-furan-2-yl)-9H-purin-2-yl]-prop-2-ynyl}-piperidine-1-carboxylic acid cyclobutyl ester]
Effect on CCI-induced allodynia relative to ATL313 and CGS21680 (CCI-induced allodynia [1]; intrathecal): ranged between ATL313 (1 μM) and CGS21680 (1 μM)

Nc1nc(C#CCC2CCN(C(=O)OCC3CC3)CC2)nc2c1ncn2C1OC(C(=O)NC2CC2)C(O)C1O (centres unmarked) [Compound C, 4-{3-[6-Amino-9-(5-cyclopropylcarbamoyl-3,4-dihydroxy-tetrahydro-furan-2-yl)-9H-purin-2-yl]-prop-2-ynyl}-piperidine-1-carboxylic acid cyclopropylmethyl ester]
Effect on CCI-induced allodynia relative to ATL313 and CGS21680 (CCI-induced allodynia [1]; intrathecal): ranged between ATL313 (1 μM) and CGS21680 (1 μM)

COC(=O)N1CCC(CC#Cc2nc(N)c3ncn(C4OC(C(=O)NC5CC5)C(O)C4O)c3n2)CC1 (centres unmarked) [ATL313, 4-{3-[6-amino-9-(5-cyclopropylcarbamoyl-3,4-dihydroxy-tetrahydro-furan-2-yl)-9H-purin-2-yl]-prop-2-ynyl}-piperidine-1-carboxylic acid methyl ester]
Effect on CCI-induced allodynia (CCI-induced allodynia [1]; 0.1 uM in 5 uL intrathecal, compared to saline-injected animals, P>0.05): no significant impact on CCI-induced allodynia | Analgesic effect in sham-operated animals (CCI-induced allodynia [1]; sham-operated animals, intrathecal, P>0.05): no effect on sham-operated animals | Duration of reversal of allodynia (CCI-induced allodynia [1]; [3]): at least 4 weeks | Effect on CCI-induced allodynia (mechanical sensitivity to von Frey filaments) (CCI-induced allodynia [1]; [3]): partial reversal of the allodynia

COc1ccccc1OC(=O)N1CCC(CC#Cc2nc(N)c3ncn(C4OC(C(=O)NC5CC5)C(O)C4O)c3n2)CC1 (centres unmarked) [Compound A, 4-{3-[6-Amino-9-(5-cyclopropylcarbamoyl-3,4-dihydroxy-tetrahydro-furan-2-yl)-9H-purin-2-yl]-prop-2-ynyl}-piperidine-1-carboxylic acid 2-methoxyphenyl ester]
Effect on CCI-induced allodynia relative to ATL313 and CGS21680 (CCI-induced allodynia [1]; intrathecal): ranged between ATL313 (1 μM) and CGS21680 (1 μM)

Nc1nc(NCCc2ccc(O)cc2)nc2nc(-c3ccco3)nn12 [ZM241385]
Effect of co-administered antagonist on the ATL313 effect on CCI-induced allodynia (CCI-induced allodynia [2]; ZM241385 10 uM co-administered intrathecally with ATL313 1 uM, 10-14 days after CCI surgery, P<0.0001): abolishes the effect of ATL313 on the CCI-induced allodynia | Effect of antagonist on the established reversal of allodynia (CCI-induced allodynia [2]; ZM241385 10 uM intrathecal, one week after ATL313 1 uM i.t.): had no effect on reversal of the allodynia induced by the previous ATL313 administration | Effect of antagonist alone on CCI-induced allodynia (CCI-induced allodynia [2]; ZM241385 10 uM intrathecal, without agonist, P>0.05): has no effect on the CCI-induced allodynia
